Experiment [1] deals with Ribosomal protein S6 kinase beta-1 (Homo sapiens, UniProt P23443). Nature of the experiment: Inhibition of p70S6K assessed as decrease in NADH absorbance at 340 nm in the presence of.
The target of experiment [2] is cAMP-dependent protein kinase catalytic subunit alpha (Homo sapiens, UniProt P17612). Nature of the experiment: Inhibition of PKAalpha assessed as decrease in NADH absorbance at 340 nm in the presence of.
Experiment [3] deals with Glycogen synthase kinase-3 beta (Homo sapiens, UniProt P49841).
Glycogen synthase kinase-3 beta, sequence (P49841 whole entry): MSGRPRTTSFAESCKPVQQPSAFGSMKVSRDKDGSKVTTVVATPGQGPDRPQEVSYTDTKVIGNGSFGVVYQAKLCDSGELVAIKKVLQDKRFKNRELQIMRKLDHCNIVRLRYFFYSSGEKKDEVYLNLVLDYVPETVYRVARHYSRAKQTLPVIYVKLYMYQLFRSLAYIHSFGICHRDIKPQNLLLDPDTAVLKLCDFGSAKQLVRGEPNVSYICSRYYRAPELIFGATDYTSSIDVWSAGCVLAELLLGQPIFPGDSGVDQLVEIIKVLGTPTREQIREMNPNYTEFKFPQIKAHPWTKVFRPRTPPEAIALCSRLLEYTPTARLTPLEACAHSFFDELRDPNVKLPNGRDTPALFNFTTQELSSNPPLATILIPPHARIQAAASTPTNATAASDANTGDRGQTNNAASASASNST
The target of experiment [4] is Rho-associated protein kinase 1 (Homo sapiens, UniProt Q13464).
Rho-associated protein kinase 1, sequence (Q13464 whole entry): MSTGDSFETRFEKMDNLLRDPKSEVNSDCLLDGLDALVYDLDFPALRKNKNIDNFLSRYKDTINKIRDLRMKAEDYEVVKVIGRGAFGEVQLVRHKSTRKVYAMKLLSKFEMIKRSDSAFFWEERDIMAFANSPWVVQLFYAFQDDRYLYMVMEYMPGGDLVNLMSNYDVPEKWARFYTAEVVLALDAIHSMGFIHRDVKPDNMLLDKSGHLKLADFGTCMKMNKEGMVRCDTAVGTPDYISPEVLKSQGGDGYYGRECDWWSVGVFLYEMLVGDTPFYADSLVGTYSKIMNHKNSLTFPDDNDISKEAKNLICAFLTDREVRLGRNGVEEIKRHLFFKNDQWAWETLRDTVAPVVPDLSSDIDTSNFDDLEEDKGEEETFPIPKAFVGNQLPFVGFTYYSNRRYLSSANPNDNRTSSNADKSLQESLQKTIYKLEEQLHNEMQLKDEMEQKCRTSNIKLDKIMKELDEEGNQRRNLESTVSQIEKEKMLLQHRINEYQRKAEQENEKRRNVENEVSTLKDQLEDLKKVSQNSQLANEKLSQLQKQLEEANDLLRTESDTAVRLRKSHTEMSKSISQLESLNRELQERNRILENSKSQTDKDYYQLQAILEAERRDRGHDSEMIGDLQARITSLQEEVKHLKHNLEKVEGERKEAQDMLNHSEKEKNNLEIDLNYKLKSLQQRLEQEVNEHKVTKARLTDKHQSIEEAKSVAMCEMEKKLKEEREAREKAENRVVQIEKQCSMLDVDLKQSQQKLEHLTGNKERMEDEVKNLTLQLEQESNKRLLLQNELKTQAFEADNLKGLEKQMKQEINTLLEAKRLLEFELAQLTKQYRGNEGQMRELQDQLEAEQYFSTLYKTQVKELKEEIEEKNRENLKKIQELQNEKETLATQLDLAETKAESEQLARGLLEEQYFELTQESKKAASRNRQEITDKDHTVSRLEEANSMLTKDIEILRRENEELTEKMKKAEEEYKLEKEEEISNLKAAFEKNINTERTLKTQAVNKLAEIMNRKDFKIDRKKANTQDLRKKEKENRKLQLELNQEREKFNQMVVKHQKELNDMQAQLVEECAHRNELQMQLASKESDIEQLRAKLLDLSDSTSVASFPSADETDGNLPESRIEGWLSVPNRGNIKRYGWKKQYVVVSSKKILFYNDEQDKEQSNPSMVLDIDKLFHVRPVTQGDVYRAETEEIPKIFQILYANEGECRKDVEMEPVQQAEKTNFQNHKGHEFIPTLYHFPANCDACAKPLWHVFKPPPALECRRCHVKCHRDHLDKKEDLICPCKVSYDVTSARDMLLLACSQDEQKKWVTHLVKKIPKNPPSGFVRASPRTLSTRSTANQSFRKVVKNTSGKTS
Description: Inhibition of ROCK1 assessed as decrease in NADH absorbance at 340 nm in the presence of

Ribosomal protein S6 kinase beta-1, sequence (P23443 whole entry): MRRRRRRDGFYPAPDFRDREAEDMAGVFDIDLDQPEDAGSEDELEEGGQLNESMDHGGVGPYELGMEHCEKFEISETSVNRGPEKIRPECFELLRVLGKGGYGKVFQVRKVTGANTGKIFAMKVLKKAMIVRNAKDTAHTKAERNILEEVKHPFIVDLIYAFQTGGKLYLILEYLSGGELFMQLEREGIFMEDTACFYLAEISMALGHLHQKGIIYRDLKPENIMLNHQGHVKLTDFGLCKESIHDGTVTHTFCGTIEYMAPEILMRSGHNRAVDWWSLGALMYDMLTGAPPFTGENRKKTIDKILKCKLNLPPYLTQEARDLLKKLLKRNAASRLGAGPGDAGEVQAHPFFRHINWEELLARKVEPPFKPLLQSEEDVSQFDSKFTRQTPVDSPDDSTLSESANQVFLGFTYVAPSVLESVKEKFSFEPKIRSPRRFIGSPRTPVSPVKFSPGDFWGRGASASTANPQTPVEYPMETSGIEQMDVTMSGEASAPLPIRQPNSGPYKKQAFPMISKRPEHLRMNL

Regarding `Cc1cn(CC(C)C)c(-c2nonc2N)n1`, the Ki was 340 nM in experiment [1], > 3300 nM in experiment [2], 690 nM in experiment [3] and > 3300 nM in experiment [4].

For the compound `COc1cccc(-n2c(-c3nonc3N)nc3ccccc32)c1`, the Ki was 1900 nM in experiment [1], > 5000 nM in experiment [3] and > 5000 nM in experiment [4].

For `COc1ccc(-n2c(-c3nonc3N)nc3ccccc32)cc1`, the Ki in experiment [1] is 550 nM; in experiment [2], > 4000 nM; in experiment [3] it was > 5000 nM; in experiment [4], 2100 nM.

As for `Nc1nonc1-c1nc2ccccc2n1-c1ccccc1`, the Ki in experiment [1] was 110 nM; in experiment [2], 1300 nM; in experiment [3], 620 nM; in experiment [4], 590 nM.

On to `N#Cc1ccccc1-n1c(-c2nonc2N)nc2ccccc21`, for which the Ki was 26 nM in experiment [1], > 5000 nM in experiment [2], > 3300 nM in experiment [3] and 810 nM in experiment [4].

On to `N#Cc1cccc(-n2c(-c3nonc3N)nc3ccccc32)c1`, for which the Ki is 800 nM in experiment [1], > 5000 nM in experiment [2], > 2500 nM in experiment [3] and > 2500 nM in experiment [4].

With `N#Cc1ccc(-n2c(-c3nonc3N)nc3ccccc32)cc1`, the Ki in experiment [1] was 800 nM; in experiment [2], > 5000 nM; in experiment [3], 1000 nM; in experiment [4], > 2500 nM.

In the case of `COc1ccccc1-n1c(-c2nonc2N)nc2ccccc21`, the Ki in experiment [1] was 31 nM; in experiment [2], > 5000 nM; in experiment [3] it was > 5000 nM; in experiment [4], 1300 nM.

Consider `Cn1c(-c2nonc2N)nc2ccccc21`, for which the Ki in experiment [1] is 540 nM; in experiment [2], > 4000 nM; in experiment [3] it was 7300 nM; in experiment [4], > 3300 nM.

As for `Nc1nonc1-c1nc2ccccc2n1CC1CCC1`, the Ki in experiment [1] is 69 nM; in experiment [2], 1400 nM.

Regarding `Nc1nonc1-c1nc2ccccc2n1C1CCCCC1`, the Ki in experiment [1] worked out at 12 nM; in experiment [2], 600 nM; in experiment [3], 240 nM; in experiment [4], 720 nM.

Regarding `Nc1nonc1-c1nc2ccccc2n1CC1CC1`, the inhibitory constant (Ki) in experiment [1] was found to be 12 nM; in experiment [2], 380 nM; in experiment [3], 290 nM; in experiment [4], 360 nM.

On to `Nc1nonc1-c1nc2cc(O)ccc2n1C1CCC1`, for which the Ki in experiment [1] was < 1 nM; in experiment [2] it was 2800 nM; in experiment [3], 1100 nM; in experiment [4], 2200 nM.

Take `CC(C)Cn1c(-c2nonc2N)nc2ccccc21`: the Ki in experiment [1] was 22 nM; in experiment [2], 1100 nM; in experiment [4] it was 930 nM.

Regarding `Cc1ccc2c(c1)nc(-c1nonc1N)n2C1CCC1`, the inhibition constant (Ki) in experiment [1] is 19 nM; in experiment [2] it was 2600 nM; in experiment [3] it was 3200 nM; in experiment [4], > 3300 nM.

For the compound `CC(C)n1c(-c2nonc2N)nc2ccccc21`, the Ki is 40 nM in experiment [1], > 3300 nM in experiment [2], 1500 nM in experiment [3] and 1900 nM in experiment [4].

As for `CC(C)Cn1cc(-c2ccccc2)nc1-c1nonc1N`, the Ki in experiment [1] is 89 nM; in experiment [2], 1200 nM; in experiment [3], > 3300 nM; in experiment [4] it was > 3300 nM.

In the case of `Nc1nonc1-c1nc2ccccc2n1C1CC1`, the Ki in experiment [1] is 95 nM; in experiment [2], > 3300 nM; in experiment [3], > 3300 nM; in experiment [4] it was 450 nM.

Consider `Nc1nonc1-c1nc2ccccc2n1C1CCC1`, for which the Ki was 4 nM in experiment [1], 540 nM in experiment [2], 380 nM in experiment [3] and 180 nM in experiment [4].

Take `Nc1nonc1-c1nc2ccccc2n1C1CCCC1`: the Ki in experiment [1] was 13 nM; in experiment [2] it was 720 nM; in experiment [3], 210 nM; in experiment [4], 340 nM.

As for `Nc1ccc2c(c1)nc(-c1nonc1N)n2C1CCC1`, the inhibition constant (Ki) is < 1 nM in experiment [1], 34 nM in experiment [2], 2100 nM in experiment [3] and 85 nM in experiment [4].

In the case of `COc1ccc2c(c1)nc(-c1nonc1N)n2C1CCC1`, the Ki in experiment [1] was found to be 39 nM; in experiment [2], 2500 nM; in experiment [3], 460 nM; in experiment [4] it was 940 nM.

`COC(=O)c1ccc2c(c1)nc(-c1nonc1N)n2C1CCC1`: the Ki is 410 nM in experiment [1], > 3300 nM in experiment [2], > 3300 nM in experiment [3] and > 3300 nM in experiment [4].

`CC(=O)Nc1ccc2c(c1)nc(-c1nonc1N)n2C1CCC1`: the Ki in experiment [1] was 2200 nM; in experiment [2], > 3300 nM; in experiment [3] it was > 3300 nM; in experiment [4], > 3300 nM.

For `Nc1nonc1-c1nc2cc(CO)ccc2n1C1CCC1`, the Ki in experiment [1] was 16 nM; in experiment [2], 1500 nM; in experiment [3], > 3300 nM; in experiment [4] it was > 3300 nM.

In the case of `CC(C)Cn1cc(C#N)nc1-c1nonc1N`, the Ki in experiment [1] is 1600 nM; in experiment [2] it was > 3300 nM; in experiment [3], > 3300 nM; in experiment [4] it was > 3300 nM.

As for `CCn1c(-c2nonc2N)nc2ccccc21` [GW549034X], the Ki came out at 50 nM in experiment [1], 960 nM in experiment [2], 700 nM in experiment [3] and 330 nM in experiment [4].

The record behind these values is ChEMBL document CHEMBL1153801, “4-(Benzimidazol-2-yl)-1,2,5-oxadiazol-3-ylamine derivatives: potent and selective p70S6 kinase inhibitors” (Bioorg Med Chem Lett, 2009).
